Data on five compounds can be found in patent publication US5147875A, “2-(substituted phenyl)-4-oxo-quinazolines” (Sanshin Kogyo Kabishiki Kaisha, priority 1988, dated 1992).

One test concerns the target calmodulin insensitive cyclic GMP phosphodiesterase. The test can be described thus: Phosphodiesterase activity: inhibition of calmodulin insensitive cyclic GMP phosphodiesterase. The format is biochemical. Conditions: procedure of European Patent Application No. 293063; read-out: IC50 (concentration of inhibitor required for 50% inhibition of enzyme activity). On the procedure: The activity of the compounds of the present invention as inhibitors of a calmodulin insensitive cyclic GMP phosphodiesterase was measured using the procedure described in European Patent Application No. 293063. […] The compounds of the present invention have the advantage that they are selective in not inhibiting cyclic AMP phosphodiesterase (type III).
For `CCCOc1ccccc1-c1nc2ccccc2c(=O)[nH]1` [Example 1, 2-(2-Propoxyphenyl)quinazolin-4(3H)-one], the IC50 is 0.71 to 5.3 µM.

On to `CCCOc1ccccc1-c1nc2cc(SC)ccc2c(=O)[nH]1` [Example 2, 7-Methylthio-2-(2-propoxyphenyl)quinazolin-4(3H)-one], for which the IC50 lay within 0.71 to 5.3 µM. As for `CCCOc1ccccc1-c1nc2cc([N+](=O)[O-])ccc2c(=O)[nH]1` [Example 3, 7-Nitro-2-(2-Propoxyphenyl)-4(3H)-quinazolinone], the IC50 was in the range of 0.71 to 5.3 µM. Consider `CCCOc1ccccc1-c1nc2cc(N)ccc2c(=O)[nH]1` [Example 4, 7-Amino-2-(2-Propoxyphenyl)-4(3H)-quinazolinone], for which the IC50 was 0.71 to 5.3 µM. Same read-out and setting: the result for `CCCOc1ccccc1-c1nc2cc(NC)ccc2c(=O)[nH]1` [Example 5, 7-Methylamino-2-(2-Propoxyphenyl)-4(3H)-quinazolinone] reads 0.71 to 5.3 µM.

For another test, the system named is U46619-induced broncho-constriction. The test can be described thus: Bronchodilatation in vivo: U46619-induced bronchoconstriction in anaesthetised guinea-pigs. Conditions: 10 μmol/kg i.v. bolus; anaesthetised male Dunkin Hartley guinea-pigs; U46619 infused i.v. 2.5 nmol/min. Set-up: species or system guinea-pig. Here is the method: Male guinea-pigs of the Dunkin Hartley strain (500-600 g) were anaesthetised with Sagatal (pentobarbital sodium) (60 mg/kg). Airway resistance was measured using a modification of the classical Konzett-Rossler technique (Versuchsanordnung zu Untersuchungen an der Bronchialmuskulatur. Naunyn-Schmiedebergs Arch. Exp. Path. Pharmak., vol 195: pp 71-74, (1940)). U46619 (9,11-methanoepoxy-PGH2) was infused i.v. at a rate of 2.5 nmol/min, this produced a steady state of broncho-constriction (approximately 120% increase from basal airway resistance). The compound under test was administered by i.v. bolus injection, and the subsequent peak inhibition of bronchoconstriction recorded.
Administration of the compound of Example 1 (10 μmol/kg) reduced the U46619-induced broncho-constriction by 34%.
Take `CCCOc1ccccc1-c1nc2ccccc2c(=O)[nH]1` [Example 1, 2-(2-Propoxyphenyl)quinazolin-4(3H)-one]: the “reduction of U46619-induced broncho-constriction (peak inhibition)” value worked out at 34%.
